Experimental data as given in patent US12655465B2, “System for detecting and characterizing a microorganism” (Q-Linea AB, priority 2016, dated 2026).
Values after ≈ are worked out from the molar mass of the structure shown.

How the values were obtained:
E. coli [1] = assay: AST by flow cytometry type counting of individual bacteria (Aquila 400), MIC from differential growth; format: cell-based; details: Aquila 400 counting; for MIC: Escherichia coli
Procedure: The sample was enriched for bacteria and at the same time the culture media was changed, in this case to Mueller-Hinton media (MH-media). E. coli bacteria were recovered via filtration through a 0.2 μm filter and the recovered bacteria were resuspended in MH-media to a concentration of approximately 10^8 CFU/ml in Müller Hinton broth before being diluted to approximately 10^6 CFU/ml in Müller Hinton Broth. Antibiotic solutions were prepared in a series of 2:1 serial dilutions in Müller Hinton broth at 10× test concentrations. The range of antibiotic concentrations was chosen based on identity of the bacteria and the antibiotic. As the microorganism identified in Example 1 was E. coli in this case the following antibiotics were selected for use in the antimicrobial susceptibility test: Ciprofloxacin, Piperacillin+Tazobactam, Cefotaxime, Ceftazidim, Meropenem and Gentamicin. A series of eight different concentrations was selected based on known clinical MIC values. Eight sample tubes containing 100 μl antibiotic solution at eight different concentrations and 800 μl Müller Hinton broth were prepared. One additional tube contains 900 μl Müller Hinton broth and no antibiotic as positive control. 100 μl bacterial suspension (10^6 CFU/ml) was added to all nine tubes. A negative control sample comprising 1000 μl Müller Hinton broth (i.e., no bacteria) is prepared as negative control. All tubes were incubated at 35° C. and samples were taken after 0, 4, 6 and 24 hours. Bacterial samples were prepared for counting as in Example 2. Bacterial AST profiles were determined using a flow cytometry based counting of individual bacteria in an Aquila 400™ instrument (Q-linea AB, Sweden). Aquila 400 analysis was performed using the alexa 488™ laser. It was evident from the analysis performed at different time points that 4 hours was sufficient for detecting differential bacterial growth at the different concentration of antibiotics and thus to determine antibiotic susceptibility. Shorter times have been shown in the literature so this is not unexpected. MIC values for each antibiotic at different time points and cut-off values were calculated based on the differential bacterial growth. Values obtained by this method compared favorably with previously reported clinical MIC values and are shown below.

E. coli [2] = assay: MIC with Macrobroth dilution; format: cell-based; details: reference method; for MIC: Escherichia coli
E. coli [3] = details: determined by another lab; cited from earlier work
[4] = 4 h, cut-off 15%, 4 hours, read-out: MIC, 4 hours
[5] = 4 h, cut-off 20%, 4 hours, read-out: MIC, 4 hours
[6] = 6 h, cut-off 5%, 6 hours, read-out: MIC, 6 hours
[7] = 6 h, cut-off 10%, 6 hours, read-out: MIC, 6 hours
[8] = 6 h, cut-off 15%, 6 hours, read-out: MIC, 6 hours
[9] = 6 h, cut-off 20%, 6 hours, read-out: MIC, 6 hours
[10] = 24 h, cut-off 5%, 24 hours, read-out: MIC, 24 hours
[11] = 24 h, cut-off 10%, 24 hours, read-out: MIC, 24 hours
[12] = 24 h, cut-off 15%, 24 hours, read-out: MIC, 24 hours
[13] = 24 h, cut-off 20%, 24 hours, read-out: MIC, 24 hours
[14] = 4 h, cut-off 5%, 4 hours incubation at 35° C. in Müller Hinton broth, read-out: MIC, 4 hours
[15] = 4 h, cut-off 10%, 4 hours, read-out: MIC, 4 hours
[16] = cut-off 5%, 4 hours incubation at 35° C. in Müller Hinton broth

Molecule	MIC (E. coli [1]; [4]) [µg/mL]	MIC (E. coli [1]; [5]) [µg/mL]	MIC (E. coli [1]; [6]) [µg/mL]	MIC (E. coli [1]; [7]) [µg/mL]	MIC (E. coli [1]; [8]) [µg/mL]	MIC (E. coli [1]; [9]) [µg/mL]	MIC (E. coli [1]; [10]) [µg/mL]	MIC (E. coli [1]; [11]) [µg/mL]	MIC (E. coli [1]; [12]) [µg/mL]	MIC (E. coli [1]; [13]) [µg/mL]	MIC (E. coli [2]) [µg/mL]	MIC with E-test (E. coli [3]) [µg/mL]	MIC (E. coli [1]; [14]) [µg/mL]	MIC (E. coli [1]; [15]) [µg/mL]	MIC, 4 hours (E. coli [1]; [16]) [µg/mL]	MIC, 6 hours (E. coli [1]; cut-off 5%, 6 hours) [µg/mL]	MIC, 24 hours (E. coli [1]; cut-off 5%, 24 hours) [µg/mL]	MIC, 4 hours (E. coli [1]; cut-off 10%, 4 hours) [µg/mL]	MIC, 6 hours (E. coli [1]; cut-off 10%, 6 hours) [µg/mL]	MIC, 24 hours (E. coli [1]; cut-off 10%, 24 hours) [µg/mL]	further results
CO/N=C(\C(=O)N[C@@H]1C(=O)N2C(C(=O)O)=C(COC(C)=O)CS[C@H]12)c1csc(N)n1 [Cefotaxime]	0.06 (≈ 0.132 µM)	0.06 (≈ 0.132 µM)	0.06 (≈ 0.132 µM)	0.06 (≈ 0.132 µM)	0.03 (≈ 0.0659 µM)	0.03 (≈ 0.0659 µM)	0.125 (≈ 0.274 µM)	0.125 (≈ 0.274 µM)	0.06 (≈ 0.132 µM)	0.06 (≈ 0.132 µM)	0.125 (≈ 0.274 µM)	≤ 0.5	–	–	–	–	–	–	–	–	–
CC(C)(O/N=C(\C(=O)N[C@@H]1C(=O)N2C(C(=O)[O-])=C(C[n+]3ccccc3)CS[C@H]12)c1csc(N)n1)C(=O)O [Ceftazidime]	0.125 (≈ 0.229 µM)	0.125 (≈ 0.229 µM)	0.125 (≈ 0.229 µM)	0.125 (≈ 0.229 µM)	0.125 (≈ 0.229 µM)	0.125 (≈ 0.229 µM)	0.25 (≈ 0.457 µM)	0.25 (≈ 0.457 µM)	0.25 (≈ 0.457 µM)	0.25 (≈ 0.457 µM)	0.25 (≈ 0.457 µM)	≤ 0.5	0.25 (≈ 0.457 µM)	0.25 (≈ 0.457 µM)	–	–	–	–	–	–	–
O=C(O)c1cn(C2CC2)c2cc(N3CCNCC3)c(F)cc2c1=O [Ciprofloxacin]	0.008 (≈ 0.0241 µM)	0.008 (≈ 0.0241 µM)	0.008 (≈ 0.0241 µM)	0.008 (≈ 0.0241 µM)	0.008 (≈ 0.0241 µM)	0.004 (≈ 0.0121 µM)	0.008 (≈ 0.0241 µM)	0.008 (≈ 0.0241 µM)	0.008 (≈ 0.0241 µM)	0.008 (≈ 0.0241 µM)	0.016 (≈ 0.0483 µM)	≤ 0.03	0.016 (≈ 0.0483 µM)	0.008 (≈ 0.0241 µM)	–	–	–	–	–	–	–
C[C@@H](O)[C@H]1C(=O)N2C(C(=O)O)=C(S[C@@H]3CN[C@H](C(=O)N(C)C)C3)[C@H](C)[C@H]12 [Meropenem]	–	0.5 (≈ 1.3 µM)	–	–	0.5 (≈ 1.3 µM)	0.25 (≈ 0.652 µM)	0.5 (≈ 1.3 µM)	0.5 (≈ 1.3 µM)	0.25 (≈ 0.652 µM)	0.125 (≈ 0.326 µM)	0.25 to 0.5 (≈ 0.652 to 1.3 µM)	≤ 0.25	–	–	–	–	–	–	–	–	–
Gentamicin	–	–	–	–	–	–	–	–	–	–	–	1	–	–	1	0.5	1	0.5	0.5	1	MIC, 4 hours (E. coli [1]; cut-off 15%, 4 hours): 0.5 µg/mL; MIC, 6 hours (E. coli [1]; cut-off 15%, 6 hours): 0.5 µg/mL; MIC, 24 hours (E. coli [1]; cut-off 15%, 24 hours): 1 µg/mL; MIC, 4 hours (E. coli [1]; cut-off 20%, 4 hours): 0.5 µg/mL; MIC, 6 hours (E. coli [1]; cut-off 20%, 6 hours): 0.5 µg/mL; MIC, 24 hours (E. coli [1]; cut-off 20%, 24 hours): 1 µg/mL; MIC with Macrobroth dilution (E. coli [2]): 0.5 to 1 µg/mL
Piperacillin and Tazobactam	–	–	–	–	–	–	–	–	–	–	–	2	–	–	4	4	4	4	4	4	MIC, 4 hours (E. coli [1]; cut-off 15%, 4 hours): 4 µg/mL; MIC, 6 hours (E. coli [1]; cut-off 15%, 6 hours): 4 µg/mL; MIC, 24 hours (E. coli [1]; cut-off 15%, 24 hours): 4 µg/mL; MIC, 4 hours (E. coli [1]; cut-off 20%, 4 hours): 4 µg/mL; MIC, 6 hours (E. coli [1]; cut-off 20%, 6 hours): 2 µg/mL; MIC, 24 hours (E. coli [1]; cut-off 20%, 24 hours): 2 µg/mL; MIC with Macrobroth dilution (E. coli [2]): 4 to 8 µg/mL
